Results: US20100092389A1 (The General Hospital Corporation, priority 2008, published 2010)

Assays:
[1] = cited from earlier work
[2] = in vivo; cited from earlier work
[3] = cited from earlier work; remark: listed apart in the source
[4] = system: atherosclerotic plaques in the iliac and aorta; test: Ex vivo fluorescence reflectance imaging (FRI) of resected atherosclerotic aortoiliac vessels; design: species or system rabbit; conditions: excitation/emission 762 nm/800 nm
Procedure: Resected atherosclerotic aortoiliac vessels underwent fluorescence reflectance imaging (FRI) with an excitation/emission filter 762 nm/800 nm and a 5 second exposure time. Light images were also obtained with an exposure time of 100 msec. Region-of-interest (ROI) analysis was performed using visual identification of plaques and normal background on FRI images. The plaque target-to-background ratio was defined as: TBR=(plaque ROI signal)/(adjacent vessel background ROI signal).

[5] = system: iliac atherosclerotic plaques; test: Catheter-based NIRF sensing of ICG enhancement of atherosclerotic plaques; format: in vivo, rabbit; conditions: immediately after injection; 6 mg ICG in 1.2 mL
Procedure: White rabbits (weight 3-3.5 kg) underwent balloon-denudation of iliac arteries and hypercholsterolemic diet in order to develop inflamed atheromata. The rabbits were placed on a high-cholesterol diet (1% cholesterol and 5% peanut oil) for 1 week prior to balloon injury. After an overnight fast, anesthesia was induced with IM ketamine (35 mg/kg) and xylazine (5 mg/kg). Anesthesia was continued using inhaled isoflurane (1-5% v/v) and supplemental 02. Next a 3F Fogarty arterial embolectomy catheter was advanced into the common iliac vessels of the rabbits. The balloon was inflated to tension (0.6-1.0 ml). A total of 3 pullbacks were performed in the left and right iliac artery, as well as the infrarenal aorta. Following injury, the introducer was removed and the left carotid artery was ligated. Rabbits continued on the high-cholesterol diet for 4-8 weeks. […]
Anesthesia was initiated as above, and a 5F introducer was placed into the right carotid artery and then delivered to the descending thoracic aorta under fluoroscopic guidance. […] The maximum voltage was recorded from each digitized pullback. The in vivo plaque target-to-background ratio (TBR) was thus calculated as TBR=(maximum voltage detected from all pullbacks)/(background voltage). […]

plaque neovessels = test: Correlative fluorescence microscopy of atheromata sections; design: species or system rabbit; conditions: x200, FIG. 4(f)
Procedure: After imaging, vessels were immersed in 4% paraformaldehyde for 24 hours. Vascular rings were then frozen in an optical cutting temperature compound for histopathological analysis. Serial 5 micrometer cryosections of rabbit atheromata were cut. […] Tissue sections were viewed using a microscope and images were captured using a digital camera.

CC1(C)C(/C=C/C=C/C=C/C=C2\N(CCCCS(=O)(=O)O)c3ccc4ccccc4c3C2(C)C)=[N+](CCCCS(=O)(=O)[O-])c2ccc3ccccc3c21 [ICG, Indocyanine green]
time usable as intravascular angiographic agent ([1]; bound to proteins): about 40 minutes
route of excretion ([1]; in vivo): rapidly excreted unmetabolized into the bile
time to elimination from the bloodstream ([1]; in vivo): about 2 hours
severe side effect incidence [2]: less than 0.1%
solubility in saline [3]: not readily soluble in saline
ex vivo plaque signal-to-background [4]: very high plaque signal-to-background
NIRF signal, voltage recordings from the intravascular space of the iliac arteries [5]: > 10 V
ICG signal in plaque neovessel by fluorescence microscopy (plaque neovessels): strong ICG signal in a plaque neovessel
